Numbered stars: 1 amine (or outer) side, 2 acyl side, 3 side chain; on linkers, the order of the positions; unused ones are H or OH. Square brackets hold non-standard residues; d marks the D form. Peptide text beside a SMILES is read from it. X1 = CCCCCCOC(=O)N=C(NCCC[C@@H](N[*:1])C(=O)[*:2])NC(=O)OCCCCCC; NMeV = CN[C@H](C(=O)O)C(C)C; dNMeA = CN[C@H](C)C(=O)O

The term logD denotes the decadic logarithm of the distribution of all forms, ionised or not, between an organic phase and buffer at a given pH. A high value points to a more lipophilic compound. Usually AUC stands for the area under the concentration-time curve, a measure of exposure. Low values mean less exposure, high ones more exposure. One may read the Cmax as the peak of the concentration-time curve. As a reminder, the Papp A→B is how fast a substance crosses the layer from the apical side.

A short description of one series: physchem. Particulars: pH 7.4, LogD, pH 7.4, reported value (mean or bound).
The conditions of series [1]: in vivo; cited from earlier work.
A short description of series [2]: Pharmacokinetic study in rats after oral administration. It is filed as in vivo, Wistar rats. Particulars: rat. How it is done:
In Vivo Studies. Male Wistar rats (Harlan, Israel), 275-300 g in weight, were used for all surgical procedures. Animals were anesthetized for the period of surgery by intraperitoneal injection of 1 mL/kg of ketamine/xylazine solution (9:1), placed on a heated surface, and maintained at 37° C. (Harvard Apparatus Inc., Holliston, MA). An indwelling cannula was placed in the right jugular vein of each animal for systemic blood sampling, by a method described before. The cannula was tunneled beneath the skin and exteriorized at the dorsal part of the neck. After completion of the surgical procedure, the animals were transferred to cages to recover overnight (12-18 h). During this recovery period, food but not water was deprived. Throughout the experiment, free access to food was available 4 h post oral administration. Animals were randomly assigned to the different experimental groups. […] Dispersed 12P SNEDDS (5 mg/kg) was administered to the animals by oral gavage (n=3). Systemic blood samples (0.35 mL) were taken at 5 min predose, 20, 40, 60, 90, 180, 240, and 360 min postdose. To prevent dehydration, equal volumes of physiological solution were administered to the rats following each withdrawal of blood sample. Plasma was separated by centrifugation (5322 g, 10 min) and stored at −20° C. pending analysis. In the 12P pharmacokinetic study, the parent peptide, 12, was analytically determined.
Pharmacokinetic Analysis. The area under the plasma concentration-time curve (AUC) was calculated by using the trapezoidal rule with extrapolation to infinity by dividing the last measured concentration by the elimination rate constant (kel). The elimination rate constant values were determined by a linear regression analysis using the last points on the logarithmic plot of the plasma concentration versus the time curve. Pharmacokinetic parameters, such Tmax, Cmax, clearance (CL), volume of distribution (V), and bioavailability, were calculated using noncompartmental analysis.
Analytical Methods. Plasma or BBMV samples were spiked with metoprolol (1.5 μg/mL) as an internal standard. ACN was added to each sample (2:1) and vortex-mixed for 1 min. The samples were then centrifuged (14 635 g, 10 min), and the supernatant was transferred to fresh glass tubes and evaporated to dryness (Vacuum Evaporation System, Labconco, Kansas City, MO, USA). Then, the glass tubes were reconstituted in 80 μL of mobile phase and centrifuged a second time (14 635 g, 10 min). The amount of the compounds was determined using an HPLC-MS Waters 2695 Separation Module, equipped with a Micromass ZQ detector. The resulting solution was injected (10 μL) into the HPLC system. The system was conditioned as follows: for parent drug peptides (including 12), a Kinetex 2.6 μm HILIC 100 Å, 100 mm×2.1 mm column (Phenomenex, Torrance, CA, USA), an isocratic mobile phase, and an acetonitrile:water:ammonium acetate buffer 50 mM (70:10:20, v/v/v) was used; and for the prodrug peptides (including 12P), a Luna (Phenomenex) 3 μm C8 100 Å, 100 mm×2.0 mm column and an isocratic mobile phase of ACN:water supplemented with 0.1% formic acid (70:30, v/v) and a flow rate of 0.2 mL/min at 25° C. was used. The limit of quantification for all of the peptides and prodrugs was 25 ng/mL.
The pharmacokinetic in-vivo study allows a further evaluation of the prodrug concept in the whole animal. The PK studies were performed in conscious Wistar male rats. An indwelling cannula was implanted in the jugular vein 24 hours before the PK experiment to allow full recovery of the animals from the surgical procedure. Animals (n=4) received either an IV bolus dose or oral dose of the investigated compound. Blood samples (with heparin, 15 U/ml) were collected at several time points for up to 6 hours post administration and was assayed by HPLC-MS method. Non-compartmental pharmacokinetic analysis was performed using WinNonlin software.

Series [3] can be described thus: Metabolic stability in rat plasma. It is filed as in vitro ADME. Particulars: 37° C., up to 90 minutes. Here is the method:
The enzymatic reactions were performed as follows: 2 mM stock solutions of the tested compounds were diluted with serum or purified brush border membrane vesicles (BBMVs) solution to a final concentration of 0.5 mM. During incubation at 37° C. samples were taken for a period of 90 minutes. The enzymatic reaction was stopped by adding 1:1 v/v of ice cold acetonitrile and centrifuge (4000 g, 10 min) before analysis. Preparation of BBMVs: The BBMVs was prepared from combined duodenum, jejunum, and upper ileum (male Wistar rats) by a Ca^++ precipitation method. Purification of the BBMVs was assayed using GGT, LAP and alkaline phosphatase as membrane enzyme markers
Peptides 12 and 12p were subjected to rat plasma and followed their degradation. Rat plasma is known to be rich with esterases.

A short description of series [4]: Caco-2 permeability study (Examples 1, 2 and 4, Table 3). It is filed as in vitro ADME, human. Particulars: Caco-2, unit inferred; read-out: Caco-2 A-to-B Papp (converted). A general note: Caco-2 cells form a polarised layer with tight junctions and transporters.
Experimental: The culture growth medium consisted of DMEM supplemented with 10% heat-inactivated FBS, 1% MEM-NEAA, 2 mM 1-glutamine, 1 mM sodium pyruvate, 50,000 units Penicillin G Sodium and 50 mg Streptomycin Sulfate (Biological Industries). The medium was replaced every other day.
Cells (passage 55-60) were seeded at density of 25×10^5 cells/cm^2 on untreated culture inserts of polycarbonate membrane with 0.4 μm pores and surface area of 1.1 cm^2. Culture inserts containing Caco-2 monolayer were placed in 12 mm transwell plates (Corning). Culture medium was replaced every other day. Transepithelial Electrical Resistance (TEER) values were measured by Millicell ERS-2 System (Millipore) a week after seeding up to experiment day (21-23 days) to ensure proliferation and differentiation of the cells. When the cells were fully differentiated and TEER values became stable (200-500 Ω·cm^2). The TEER values were compared to control inserts containing only the medium.
The experiment was initiated by replacing the medium from both sides by apical (600 μl) and basolateral (1500 μl) buffers, both warmed to 37° C. The Cells were incubated with the buffers solutions for 30 min at 37° C. on a shaker (100 cycles/min). The apical buffer was replaced by apical buffer containing 10 μg/ml of the cyclic peptides of the invention. 50 μl samples were taken from the apical side immediately at the beginning of the experiment, resulting in 550 μl apical volume during the experiment.
Permeability Coefficient (Papp) for each compound was calculated from the linear plot of drug accumulated versus time, using the following equation:
Where dq/dt is steady state appearance rate of the compound on the receiver side, Co is the initial concentration of the drug on the donor side, and A is the exposed tissue surface area (1.1 cm^2).
Transport studies were performed through the Caco-2 monolayer mounted in an Ussing-type chamber set-up with continuous trans-epithelial electrical resistance (TEER) measurements to assure TEER between 800 and 1200 Sr cm^2. HBSS supplemented with 10 mM MES and adjusted to pH 6.5 were used as transport medium in the donor compartment and pH 7.4 in the acceptor compartment. The donor solution contained the test compound.
Permeability mechanism of compounds is studied by evaluating the Papp of a compound from the apical to the basolateral (A-to-B) membrane and its Papp from the basolateral to the apical membrane (B-to-A). The A-to-B assay simulates passive and transporter-mediated permeability. The B-to-A assay is essential complementary experiment indicative of the activity of P-gp. The ratio of the A-to-B and B-to A Papps (efflux ratio) is calculated to determine the permeability mechanism.
The next series relates to rat CYP3A4 microsomes. The series is described as follows: Enzymatic inhibition study in isolated rat CYP3A4 microsomes. It is filed as in vitro ADME. Particulars: 60 min.
Another series deals with CYP3A4. Described as above. It is filed as in vitro ADME. Particulars: rat, pooled rat CYP3A4 microsomes, pH 7.4; with ketoconazole; 60 min; read-out: concentration remaining after incubation, with ketoconazole.
Series [5] can be described thus: Pooled Human Liver Microsome assay. It is filed as in vitro ADME. The source says:
Peptide 12 P was subjected to additional in vitro assay to evaluate the involvement of liver metabolism using the Pooled Human Liver Microsome assay. Liver microsomes are subcellular particles derived from the endoplasmic reticulum of hepatic cells. These microsomes are a rich source of drug metabolizing enzymes, including cytochrome P-450. Microsome pools from various sources are useful in the study of xenobiotic metabolism and drug interactions. […] The presence of ketokonazole inhibits the metabolism by the liver enzymes in some degree. However, Incubating peptide 12P with self-assembling pro-nano lipospheres (PNL), led to much better inhibition of cytochromes P-450.

The mark [6] stands for this setting: oral 5 mg/kg, peptide 12 measured in plasma, 12P given as dispersed 12P SNEDDS.

Regarding `CC(C)[C@H]1C(=O)N[C@@H](CCCN=C(N)N)C(=O)NCC(=O)N[C@@H](CC(=O)O)C(=O)N[C@H](Cc2ccccc2)C(=O)N1C` [Cilengitide, cyclo(RGDf-(NMe)V)], the “permeability in the PAMPA-GIT model system” value is “low permeability”. The logD at 1 h in the series “physchem” is less than -1. Further, the “half live in man” value in series [1] is 4 h.
As for `CCCCCCOC(=O)N=C(NCCC[C@H]1NC(=O)[C@H](C(C)C)N(C)C(=O)[C@@H](C)N(C)C(=O)[C@@H](C)NC(=O)[C@@H](CC(=O)OC)NC(=O)CNC1=O)NC(=O)OCCCCCC` [#29P*] (cyclo(G[dD](OMe)[dA][dNMeA][NMeV][X1])), the “permeability in the PAMPA-GIT model system” value was greater than -5. In addition, in the series with Caco-2 cells, the “Papp (AB), replicate 1” value is reported as 0.1 10^−6 cm/s.
In the case of `CCCCCCOC(=O)N=C(NCCC[C@@H]1NC(=O)[C@@H](C)N(C)C(=O)[C@H](C)N(C)C(=O)[C@H](C)NC(=O)[C@H](CC(=O)OC)NC(=O)CNC1=O)NC(=O)OCCCCCC` [Peptide 12P, c(*aR(Hoc)2GD(OMe)A*A)], the “relative bioavailability vs peptide 12” value in series [2] (after oral administration) was “about 70 fold”. Moreover, in series [2] (setting [6]), the AUC came to 216.9 ± 75.6 µg·min/mL, the Cmax is given as 1993 ± 967 ng/mL, the F is recorded as 43.8 ± 14.9% and the Kel amounted to 0.009 ± 0.0001 min⁻¹. Besides, the “Tmax, Median (range)” value in series [2] (setting [6]) is listed as 20 (20-60) min. In addition, the “metabolic stability in rat plasma, in words” value in series [3] is “degraded”. Further, in [4], the apical-to-basolateral permeability (Papp A→B) is 0.785 ×10⁻⁶ cm/s. For the same compound, the “concentration remaining after incubation, alone” value with rat CYP3A4 microsomes (12P alone) is on record as 14.0±4.06%. Further, in the series with rat CYP3A4 microsomes (dispersed 12P SNEDDS), the “concentration remaining after incubation, with SNEDDS” value is on record as 102.2±19.7%. The remaining at 1 h, 1 µM in the series on CYP3A4 is 67 ± 3.61%. For the same compound, the “metabolism by Pooled Human Liver Microsomes, in words” value in series [5] was “substrate for P-gp efflux system and cytochromes P-450”.
